On to `O=C(O)c1csc(CCc2ccccc2)n1`, for which the melting point (in general, the temperature of the solid-liquid transition) fell in the range of 132 to 134 °C.
`COC(=O)c1nc(Cl)ccc1S(=O)(=O)Cl` returned a melting point of 143 to 145 °C.
The same measure for `Sc1n[nH]c(C2CC2)n1`: 235 to 237 °C; for `C=CCn1c(S)nc2cc(Cl)ccc2c1=O`: 139 to 141 °C; for `O=C(O)c1cc(S)ccc1Cl`: 154 to 156 °C.
The same measure for `CC(C)(C)c1n[nH]c(O)c1CCC#N`: 218 to 220 °C; for `Cc1cc2ccccc2n1CC(=O)O`: 184 to 186 °C; for `O=[N+]([O-])c1cccc(-c2nnc(CCl)o2)c1`: 115 to 117 °C.
Take `Cc1cc(N)n(-c2cc(C(F)(F)F)ccc2Cl)n1`: the melting point fell in the range of 159 to 161 °C.
For `Cc1nccc(CN)n1` the value was 8 to 10 °C; for `CC1CN(c2cc(N)cc(F)c2)CC(C)O1` (configuration not stated), 80 to 82 °C; for `COc1ccc2c(c1)C(=NO)C(=O)N2`, 236 to 238 °C.
`COc1ccc(CNc2ccc3[nH]c(=O)[nH]c3c2)cc1` returned a melting point of 254 to 256 °C.
For `Cc1cc2ncn(C(C)C(N)=S)c2cc1C` (configuration not stated) the value was 204 to 206 °C; for `Cc1cccc(-c2[nH]ncc2C=O)c1`, 55 to 57 °C.
The molecule `Nc1ccc(-c2cccc(C(F)(F)F)c2)cn1` displayed a melting point of 101 to 103 °C.
The same measure for `O=C1CCCCc2c[nH]cc21`: 64 to 66 °C; for `COc1cc(OC)c(S(N)(=O)=O)cc1Br`: 257 to 259 °C; for `O=C(O)/C=C/c1cnn(Cc2ccccc2)c1`: 118 to 120 °C.
For `NC(=O)CCC(C(=O)O)N1C(=O)c2ccccc2C1=O` (configuration not stated) the value was 161 to 163 °C.
Molecule `O=C(O)c1cnc(O)cc1O` had a melting point of 293 to 295 °C.
The same measure for `Nc1cccc(-c2ccc3c(c2)OCCO3)n1`: 117 to 119 °C.
For `CCCc1c(C(=O)O)[nH]c(C)c1C(=O)OC`, the melting point fell in the range of 215 to 217 °C.
`CC1=NN(Cc2ccccc2)C(=O)C1`: the melting point was 175 to 177 °C.
The same measure for `Nc1nc2c(ccc3ccccc32)s1`: 134 to 136 °C.
For `CC(C)(C)OC(=O)N1CCOCC1C(=O)O` (configuration not stated) the value was 162 to 164 °C; for `CC(=O)C(N)=S`, 59 to 61 °C; for `Nc1[nH]ncc1-c1nc2cc(Cl)ccc2s1`, 274 to 276 °C.
In the case of `Cc1ccc(C)c(NC(=O)CCl)c1`, the melting point fell in the range of 161 to 163 °C.
The same measure for `Nc1ccc(CCC(=O)O)cn1`: 199 to 201 °C.
For `O=C(O)c1cc(-c2cccc(Cl)c2)on1` the value was 175 to 177 °C.
For `NC(=O)c1ccc(NC(=O)OCC(F)(F)F)cc1Cl` the value was 178 to 180 °C; for `COc1cc(C=O)ccc1OCc1c(C)noc1C`, 111 to 115 °C.
In turn, `O=C(O)c1cc(Cl)c[nH]1` came in with a melting point of 182 to 184 °C.
In turn, `COCCNc1nnc(S)s1` came in with a melting point of 120 to 122 °C.
The same measure for `Cc1occc1C(=O)Nc1cc(N)ccc1F`: 130 to 132 °C.
For `OCCOc1ccccc1O`, the melting point lay in the range of 99 to 100 °C.
Molecule `Cc1ccc(N(C(=O)CCl)C2C=CS(=O)(=O)C2)cc1` (configuration not stated) came in with a melting point of 118 to 120 °C.
`Cn1cc(S(=O)(=O)Cl)cc1C(N)=O` yielded a melting point of 132 to 134 °C.
For `c1ccc(C2NCCn3cccc32)cc1` (configuration not stated) the value was 72 to 74 °C.
The molecule `O=C1CCc2cc(OCCO)ccc2N1` registered a melting point of 180 to 182 °C.
Take `O=S(=O)(Nc1cccc(Br)c1)c1ccccc1`: the melting point is 116 to 118 °C.
Turning to `Cn1c(=O)[nH]c(=O)c2ccc(C(=O)O)nc21`, the melting point fell in the range of 305 to 307 °C.
For the molecule `C1=CCC(c2nc3ccccc3[nH]2)CC1` (configuration not stated), the melting point was 209 to 211 °C.
For `Cc1cccc2nc(CSc3ccccc3C(=O)O)cc(=O)n12` the value was 211 to 213 °C.
For `NC(=S)COCc1ccccc1` the value was 43 to 45 °C; for `Cc1cc(C#N)ccc1NC1CC1`, 101 to 103 °C.
Take `O=C(O)CC1CCOc2ccccc21` (configuration not stated): the melting point lay in the range of 89 to 91 °C.
For `Sc1nc2ccccc2n1C1CCCCC1` the value was 178 to 182 °C; for `O=C(O)Cc1c[nH]c2ncccc12`, 215 to 217 °C; for `NC1CCCN(c2cc(C(=O)O)ccn2)C1` (configuration not stated), 252 to 254 °C.
For the molecule `O=C(O)c1cc(Br)c(Cl)[nH]1`, the melting point was 179 to 181 °C.
Consider `N#CCc1cccc(C#N)c1`, for which the melting point lay within 78 to 80 °C.
Turning to `CCn1cnnc1-c1cccc(N)c1`, the melting point lay in the range of 179 to 181 °C.
Molecule `NS(=O)(=O)CCCCl` yielded a melting point of 63 to 65 °C.
On to `Cc1nn(-c2cccc(Cl)c2)nc1C(=O)O`, for which the melting point lay in the range of 202 to 204 °C.
For `Cc1noc2nc3c(cc12)CCOC3=O` the value was 224 to 226 °C.
For `O=C1CCCC(=O)N1Cc1cccc(Br)c1` the value was 76 to 78 °C.
`OC1CCOc2ccc(Br)cc21` (configuration not stated): the melting point was 91 to 93 °C.
The same measure for `COc1cc(C=O)c([N+](=O)[O-])cc1OCC(F)(F)F`: 150 to 152 °C.
Turning to `Nc1ccc(SCc2cccnc2)cc1`, the melting point was in the range of 125 to 127 °C.
The same measure for `CC1Cc2ccccc2N1S(N)(=O)=O` (configuration not stated): 67 to 69 °C.
The same measure for `CC(N)c1ccc(NS(C)(=O)=O)cc1` (configuration not stated): 142 to 144 °C.
Molecule `Cc1cc(S(N)(=O)=O)sc1C(=O)O` came in with a melting point of 249 to 251 °C.
For `COc1ccc(C(C)=O)cc1CN1CCOCC1` the value was 58 to 60 °C; for `COc1cccc(-c2nn(-c3ccc(C)cc3)cc2C(=O)O)c1`, 162 to 164 °C; for `NC(=O)CCn1ccc(N)n1`, 142 to 144 °C.
`O=C(CCl)c1ccc2c(c1)-c1ccccc1C2` displayed a melting point of 133 to 135 °C.
For the molecule `CCOc1ncc(C(=O)O)cc1Cl`, the melting point fell in the range of 214 to 216 °C.
The molecule `Cc1ccc(NC(=O)Nc2ccccc2)cc1N` displayed a melting point of 201 to 203 °C.
The same measure for `CN(CC(=O)O)S(=O)(=O)c1cccnc1`: 175 to 177 °C.
Molecule `O=C(NC(Cc1ccccc1)C(=O)O)c1ccc(Cl)cc1` (configuration not stated) showed a melting point of 195 to 197 °C.
For `O=C(O)c1cccc(NC(=O)c2ccc3[nH]cnc3c2)c1` the value was 305 to 307 °C; for `Cc1ccc(-c2cc(C(=O)O)n[nH]2)s1`, 209 to 211 °C; for `Nc1cccnc1-n1cncn1`, 110 to 112 °C.
Turning to `COc1ccc(NC(=O)COc2ccccc2C(=O)O)cc1Cl`, the melting point fell in the range of 229 to 231 °C.
Regarding `COC(=O)c1cnc2[nH]nc(C)c2c1`, the melting point lay within 185 to 187 °C.
The same measure for `CCOC(=O)c1cc2cc(C(=O)O)ccc2[nH]1`: 247 to 249 °C.
With `O=C(O)c1cccc(S(=O)(=O)Nc2ccc(OCc3ccccc3)cc2)c1`, the melting point fell in the range of 81 to 83 °C.
The same measure for `CCOc1cc(C=CC#N)ccc1OC`: 57 to 59 °C; for `NNC(=O)C1CCS(=O)(=O)C1` (configuration not stated): 71 to 73 °C.
For `Cc1ccc(N)cc1NC(=O)CN1CCCCC1` the value was 108 to 110 °C; for `Nc1nnc(-c2ccccn2)s1`, 260 to 262 °C; for `CS(=O)c1ccccc1C(=O)O` (configuration not stated), 130 to 135 °C.
The same measure for `O=[N+]([O-])c1c(CCl)nc2ccccn12`: 152 to 154 °C; for `CCC(C)n1nc(C(=O)O)cc1C` (configuration not stated): 103 to 105 °C.
Molecule `Cc1nc2sccn2c1CO` came in with a melting point of 180 to 182 °C.
The same measure for `CCN(CC)S(=O)(=O)c1ccc(N2CCCCC2)c(N)c1`: 75 to 77 °C; for `Cc1nnc(S)n1C`: 112 to 115 °C; for `COc1ccc(NCc2cccs2)cc1`: 71 to 73 °C.
For `Cn1cc([N+](=O)[O-])cc1C(=O)NCC(=O)O` the value was 130 to 132 °C; for `Cc1cccc(C)c1OCC(=O)O`, 138 to 140 °C; for `COC(=O)C#Cc1ccc(F)cc1F`, 58 to 60 °C.
`CC(O)Cc1ccccc1S(C)(=O)=O` (configuration not stated) yielded a melting point of 55 to 57 °C.
Molecule `Cc1cccc2sc(NC(=O)OCC(F)(F)F)nc12` gave a melting point of 220 to 222 °C.
`O=C(O)Cn1c(-c2ccccc2Cl)nc2ccccc21` registered a melting point of 276 to 278 °C.
The same measure for `Cc1ccn(-c2cc(CO)ccn2)n1`: 92 to 94 °C.
The same measure for `Cc1n[nH]c(C2CNCCO2)n1` (configuration not stated): 104 to 106 °C.
With `NC(=O)C1CCCN(c2ccc(N)cn2)C1` (configuration not stated), the melting point was 168 to 170 °C.
The same measure for `O=[N+]([O-])c1ccccc1-c1cn[nH]c1`: 105 to 107 °C; for `O=C(O)c1ccc(N2CCCc3ccccc32)cc1`: 214 to 216 °C.
As to `O=c1[nH]c2ccccc2cc1CO`, the melting point was in the range of 239 to 241 °C.
In the case of `COc1ccc2nc(C)cc(Cl)c2c1`, the melting point lay within 99 to 101 °C.
For `NC(=O)Nc1cccc(F)c1C(=O)O` the value was 149 to 151 °C; for `N#CCC1=NCCN1`, 84 to 86 °C; for `O=[N+]([O-])c1cc(CCl)c2c(c1)COCO2`, 94 to 96 °C.
Molecule `CN(C)c1ccc(-c2cncc(C(=O)O)c2)cc1` came in with a melting point of 284 to 286 °C.
With `Cc1nn(-c2ccccc2)c(C)c1C(=O)C(=O)O`, the melting point lay within 206 to 208 °C.
The same measure for `CC(C)(C)OC(=O)N1CCC2(CC1)CC2C(=O)O` (configuration not stated): 123 to 125 °C.
The same measure for `NC(=O)N1CCC(C(=O)O)CC1`: 193 to 195 °C.
The same measure for `COc1cc(C)c(Br)cc1S(=O)(=O)Cl`: 137 to 139 °C; for `CCOC(=O)c1c(CBr)oc2ccccc12`: 84 to 86 °C.
Molecule `Cc1cc(Cl)cc2nc(Cl)oc12` gave a melting point of 59 to 61 °C.
`Nc1nc(CN2CCNCC2)nc2ccccc12` came in with a melting point of 213 to 215 °C.
The same measure for `Cc1ccc(C(=O)N(C)C)cc1O`: 153 to 155 °C; for `O=C(O)c1cn2ccccc2n1`: 242 to 244 °C.
The same measure for `CC(C)(C)OC(=O)Nc1cc(Br)ccc1C(=O)O`: 179 to 181 °C; for `Cc1noc(-c2ccc(N)c(C)c2)n1`: 161 to 163 °C; for `Nc1cc(I)ccc1Cl`: 56 to 58 °C.
The molecule `CCOc1ccc(Nc2nc3ccccc3s2)cc1` yielded a melting point of 169 to 171 °C.
`c1ccc(-c2csc(N3CCOCC3)n2)cc1` gave a melting point of 75 to 77 °C.
On to `O=C(O)CCSc1ccc2c(c1)OCCCO2`, for which the melting point fell in the range of 63 to 65 °C.

Source of the values: a melting point compilation (Tetko et al.).
